Source: ChEMBL document CHEMBL1151973, “Rhazinilam and quebrachamine derivatives from Yunnan Kopsia arborea” (J Nat Prod, 2009)

Assays:
A549 = test: Cytotoxicity against human A549 cells after 96 hrs by microplate reader assay; format: functional, cell-based; conditions: A549, 96 h
HT-29 = test: Cytotoxicity against human HT-29 cells after 96 hrs by microplate reader assay; format: functional, cell-based; conditions: HT-29, 96 h

| SMILES | IC50 (A549) [µM] | IC50 (HT-29) [µM] |
| --- | --- | --- |
| CC[C@@]12CCCN(CCc3c([nH]c4ccccc34)CC1)C2 | > 30 | 30 |
| CC[C@]12CCCn3c(COC)cc(c31)-c1ccccc1NC(=O)CC2 | 5.38 | 4.67 |
| CC[C@]12CCCn3c(CO)cc(c31)-c1ccccc1NC(=O)CC2 | 8.21 | 8.89 |
| CCOCc1cc2c3n1CCC[C@]3(CC)CCC(=O)Nc1ccccc1-2 | 7.44 | 6.39 |
| CC(=O)O[C@@]12CO[C@@H]1C[C@H](O)[C@@]1(C)C(=O)[C@H](O)C3=C(C)[C@@H](OC(=O)[C@H](O)[C@@H](NC(=O)OC(C)(C)C)c4ccccc4)C[C@@](O)([C@@H](OC(=O)c4ccccc4)[C@H]21)C3(C)C [DOCETAXEL] | 0.000495 | 0.000334 |
| CC[C@@]12CCCN(CCc3c(n(COC)c4ccccc34)CC1)C2 [KOPSIYUNNANINE D] | > 30 | 30 |
| CC[C@]12CCCn3ccc(c31)-c1ccccc1NC(=O)CC2 [RHAZINILAM] | 0.35 | 0.35 |
